Test results reported in a compilation of properties of binary mixtures (doi:10.1007/s10953-013-9991-z).

Experiment: xn = mol fraction of the nth substance listed
Conditions: 101 kPa

Compound CC[n+]1ccn(C)c1.F[B-](F)(F)F + CNC=O has a speed of sound (293.15 K, x2 = 0) of 1631 m/s, a speed of sound (298.15 K, x2 = 0) of 1619.4 m/s and a speed of sound (303.15 K, x2 = 0) of 1607.6 m/s. The speed of sound (308.15 K, x2 = 0) was 1596.3 m/s.
CC[n+]1ccn(C)c1.F[B-](F)(F)F + CN(C)C=O gave a speed of sound (293.15 K, x2 = 0) of 1631 m/s, a speed of sound (293.15 K, x2 = 0.0903) of 1625.1 m/s and a speed of sound (293.15 K, x2 = 0.1717) of 1622.4 m/s. It also gave a speed of sound (293.15 K, x2 = 0.2275) of 1621.4 m/s, a speed of sound (293.15 K, x2 = 0.2781) of 1620.2 m/s and a speed of sound (293.15 K, x2 = 0.3276) of 1618.1 m/s. It also gave a speed of sound (293.15 K, x2 = 0.3781) of 1615.6 m/s, a speed of sound (293.15 K, x2 = 0.4227) of 1612.9 m/s and a speed of sound (293.15 K, x2 = 0.4757) of 1607.8 m/s. For the same compound, the speed of sound (293.15 K, x2 = 0.5697) was 1593.8 m/s, the speed of sound (293.15 K, x2 = 0.6261) was 1582.9 m/s and the speed of sound (293.15 K, x2 = 0.7291) was 1558.1 m/s. For the same compound, the speed of sound (293.15 K, x2 = 0.769) was 1546.4 m/s, the speed of sound (293.15 K, x2 = 0.8268) was 1529.4 m/s and the speed of sound (298.15 K, x2 = 0) was 1619.4 m/s. For the same compound, the speed of sound (298.15 K, x2 = 0.0903) was 1611.5 m/s, the speed of sound (298.15 K, x2 = 0.1257) was 1609.6 m/s and the speed of sound (298.15 K, x2 = 0.2275) was 1606.7 m/s. For the same compound, the speed of sound (298.15 K, x2 = 0.3276) was 1603.9 m/s, the speed of sound (298.15 K, x2 = 0.3781) was 1601 m/s and the speed of sound (298.15 K, x2 = 0.4227) was 1598.5 m/s. The speed of sound (298.15 K, x2 = 0.5258) was 1586.4 m/s, the speed of sound (298.15 K, x2 = 0.5697) was 1579.9 m/s and the speed of sound (298.15 K, x2 = 0.6261) was 1568.1 m/s. The speed of sound (298.15 K, x2 = 0.8268) was 1512.2 m/s, the speed of sound (298.15 K, x2 = 0.8789) was 1495.6 m/s and the speed of sound (303.15 K, x2 = 0) was 1607.6 m/s. It also gave a speed of sound (303.15 K, x2 = 0.0903) of 1598 m/s, a speed of sound (303.15 K, x2 = 0.1257) of 1596 m/s and a speed of sound (303.15 K, x2 = 0.1717) of 1594 m/s. It also gave a speed of sound (303.15 K, x2 = 0.2275) of 1591.9 m/s, a speed of sound (303.15 K, x2 = 0.2781) of 1590.4 m/s and a speed of sound (303.15 K, x2 = 0.3276) of 1589.2 m/s. The speed of sound (303.15 K, x2 = 0.3781) was 1586.1 m/s, the speed of sound (303.15 K, x2 = 0.4227) was 1583.6 m/s and the speed of sound (303.15 K, x2 = 0.4757) was 1577.9 m/s. It also gave a speed of sound (303.15 K, x2 = 0.5258) of 1571.3 m/s, a speed of sound (303.15 K, x2 = 0.6261) of 1552.6 m/s and a speed of sound (303.15 K, x2 = 0.6758) of 1541.3 m/s. For the same compound, the speed of sound (303.15 K, x2 = 0.7291) was 1526.5 m/s, the speed of sound (303.15 K, x2 = 0.769) was 1513.9 m/s and the speed of sound (303.15 K, x2 = 0.8268) was 1495.4 m/s. It also gave a speed of sound (303.15 K, x2 = 0.8789) of 1478.4 m/s, a speed of sound (308.15 K, x2 = 0.0903) of 1586 m/s and a speed of sound (308.15 K, x2 = 0.1257) of 1583.1 m/s. The speed of sound (308.15 K, x2 = 0.2275) was 1577.6 m/s, the speed of sound (308.15 K, x2 = 0.2781) was 1574.8 m/s and the speed of sound (308.15 K, x2 = 0.3276) was 1572.2 m/s. The speed of sound (308.15 K, x2 = 0.3781) was 1569.6 m/s, the speed of sound (308.15 K, x2 = 0.4227) was 1565.4 m/s and the speed of sound (308.15 K, x2 = 0.4757) was 1560.5 m/s. The speed of sound (308.15 K, x2 = 0.5258) was 1553.1 m/s, the speed of sound (308.15 K, x2 = 0.6261) was 1534.5 m/s and the speed of sound (308.15 K, x2 = 0.6758) was 1523.2 m/s. The speed of sound (308.15 K, x2 = 0.7291) was 1508.1 m/s, the speed of sound (308.15 K, x2 = 0.769) was 1496.7 m/s and the speed of sound (308.15 K, x2 = 0.8268) was 1478 m/s. It also gave a speed of sound (308.15 K, x2 = 0.8789) of 1460.1 m/s.
For CNC=O + CC[n+]1ccn(C)c1.F[B-](F)(F)F, the speed of sound (293.15 K, x1 = 0.0661) was 1633.3 m/s, the speed of sound (293.15 K, x1 = 0.0886) was 1633.3 m/s and the speed of sound (293.15 K, x1 = 0.1287) was 1633 m/s. For the same compound, the speed of sound (293.15 K, x1 = 0.1757) was 1631.7 m/s, the speed of sound (293.15 K, x1 = 0.2258) was 1628 m/s and the speed of sound (293.15 K, x1 = 0.2783) was 1622.6 m/s. It also gave a speed of sound (293.15 K, x1 = 0.3729) of 1608.1 m/s, a speed of sound (293.15 K, x1 = 0.4259) of 1597.9 m/s and a speed of sound (293.15 K, x1 = 0.4766) of 1585.5 m/s. The speed of sound (293.15 K, x1 = 0.5291) was 1572.2 m/s, the speed of sound (293.15 K, x1 = 0.5749) was 1559.2 m/s and the speed of sound (293.15 K, x1 = 0.6252) was 1543.5 m/s. The speed of sound (293.15 K, x1 = 0.7281) was 1511.5 m/s, the speed of sound (293.15 K, x1 = 0.7744) was 1496.7 m/s and the speed of sound (293.15 K, x1 = 0.8271) was 1481.1 m/s. The speed of sound (293.15 K, x1 = 0.8782) was 1467.7 m/s, the speed of sound (298.15 K, x1 = 0.0886) was 1622.4 m/s and the speed of sound (298.15 K, x1 = 0.1287) was 1622.1 m/s. The speed of sound (298.15 K, x1 = 0.1757) was 1619.5 m/s, the speed of sound (298.15 K, x1 = 0.2258) was 1615.8 m/s and the speed of sound (298.15 K, x1 = 0.2783) was 1609 m/s. It also gave a speed of sound (298.15 K, x1 = 0.3287) of 1601.7 m/s, a speed of sound (298.15 K, x1 = 0.3729) of 1593 m/s and a speed of sound (298.15 K, x1 = 0.4259) of 1582.3 m/s. The speed of sound (298.15 K, x1 = 0.4766) was 1569.5 m/s, the speed of sound (298.15 K, x1 = 0.5749) was 1543.2 m/s and the speed of sound (298.15 K, x1 = 0.6252) was 1527.8 m/s. It also gave a speed of sound (298.15 K, x1 = 0.6773) of 1511.9 m/s, a speed of sound (298.15 K, x1 = 0.8782) of 1453.9 m/s and a speed of sound (298.15 K, x1 = 1) of 1431.9 m/s. For the same compound, the speed of sound (303.15 K, x1 = 0.0886) was 1611.3 m/s, the speed of sound (303.15 K, x1 = 0.1287) was 1610.8 m/s and the speed of sound (303.15 K, x1 = 0.1757) was 1607.8 m/s. It also gave a speed of sound (303.15 K, x1 = 0.2258) of 1603.3 m/s, a speed of sound (303.15 K, x1 = 0.2783) of 1595.9 m/s and a speed of sound (303.15 K, x1 = 0.4259) of 1567.3 m/s. For the same compound, the speed of sound (303.15 K, x1 = 0.4766) was 1554.2 m/s, the speed of sound (303.15 K, x1 = 0.5291) was 1540.2 m/s and the speed of sound (303.15 K, x1 = 0.6252) was 1513 m/s. It also gave a speed of sound (303.15 K, x1 = 0.6773) of 1496.9 m/s, a speed of sound (303.15 K, x1 = 0.7281) of 1482 m/s and a speed of sound (303.15 K, x1 = 0.7744) of 1467.9 m/s. It also gave a speed of sound (303.15 K, x1 = 0.8271) of 1453 m/s, a speed of sound (303.15 K, x1 = 1) of 1417.7 m/s and a speed of sound (308.15 K, x1 = 0.0886) of 1600.3 m/s. The speed of sound (308.15 K, x1 = 0.1757) was 1596.1 m/s, the speed of sound (308.15 K, x1 = 0.2258) was 1590.7 m/s and the speed of sound (308.15 K, x1 = 0.2783) was 1583.5 m/s. The speed of sound (308.15 K, x1 = 0.4259) was 1552.1 m/s, the speed of sound (308.15 K, x1 = 0.4766) was 1539.1 m/s and the speed of sound (308.15 K, x1 = 0.5291) was 1524.6 m/s. For the same compound, the speed of sound (308.15 K, x1 = 0.5749) was 1511.9 m/s, the speed of sound (308.15 K, x1 = 0.6252) was 1496.9 m/s and the speed of sound (308.15 K, x1 = 0.6773) was 1480.7 m/s. The speed of sound (308.15 K, x1 = 0.7744) was 1452.1 m/s and the speed of sound (308.15 K, x1 = 0.8271) was 1437 m/s.
With CN(C)C=O + CC[n+]1ccn(C)c1.F[B-](F)(F)F the speed of sound (293.15 K, x1 = 1) was 1477.8 m/s, the speed of sound (303.15 K, x1 = 1) was 1440.3 m/s and the speed of sound (308.15 K, x1 = 1) was 1421 m/s.
